Our source for the EC50 values is patent US10246419B2, “Liver X receptor (LXR) modulators” (Ralexar Therapeutics, Inc., priority 2013, dated 2019).

pEC50: −log10 of the molar value. Bounds are passed on as bounds.

The pEC50 is the negative decadic logarithm of the EC50, by convention in mol/L. The low end stands for a high EC50, the high end for a low EC50.

The target in the assay is human LXRβ (AA 153-461) LBD (Homo sapiens (Human), UniProt P55055). The assay is described as follows: Gal4 LXRβ cotransfection assay (LXRβ Gal fusion assay). Format: cell-based. The settings on record: HEK 293 cells transiently transfected, Gal4-responsive luciferase reporter, compounds 0.01-10 μM. As for the experimental part:
For transient transfection of HEK 293 cells, 6×10^3 cells are plated into 96-well dishes. Each well is transfected with 25 ng 5×UAS-luciferase reporter (pG5luc) and 25 ng of pM human LXRβ (AA 153-461) LBD plasmid using Fugene 6 reagent (Roche; Indianapolis, Ind.). The chimeric protein is assessed for the ability to transactivate a Gal4-responsive luciferase reporter plasmid in a concentration-responsive manner to compounds (0.01-10 μM). Luciferase activity at each dose concentration is measured in triplicate using standard substrate reagents (BD Biosciences; San Diego, Calif.).

Sequence of human LXRβ (AA 153-461) LBD (P55055 153-460 limits assumed): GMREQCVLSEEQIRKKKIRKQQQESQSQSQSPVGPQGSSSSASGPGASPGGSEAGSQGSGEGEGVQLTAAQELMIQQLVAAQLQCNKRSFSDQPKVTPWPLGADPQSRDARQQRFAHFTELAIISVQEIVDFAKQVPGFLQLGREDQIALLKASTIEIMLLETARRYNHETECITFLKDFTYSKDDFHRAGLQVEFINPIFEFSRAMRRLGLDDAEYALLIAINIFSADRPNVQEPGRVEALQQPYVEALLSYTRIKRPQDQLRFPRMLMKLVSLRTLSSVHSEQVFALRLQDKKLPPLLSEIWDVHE

On to `CC(C)Cn1nc(C(F)(F)F)cc1-c1ccc(-c2cccc(S(C)(=O)=O)c2)cc1` [Compound 4, 1-isobutyl-5-(3′-(methylsulfonyl)biphenyl-4-yl)-3-(trifluoromethyl)-1H-pyrazole], for which the pEC50 is above 6.00.

For `CC(C)Cn1nc(C(F)(F)F)cc1-c1ccc(-c2ccc(CO)c(S(C)(=O)=O)c2)cc1` [Compound 5, (4′-(1-isobutyl-3-(trifluoromethyl)-1H-pyrazol-5-yl)-3-(methylsulfonyl)biphenyl-4-yl)methanol], the pEC50 is above 6.00.

Regarding `CC(C)Cn1nc(C(=O)NCC(F)(F)F)cc1-c1ccc(-c2cccc(S(C)(=O)=O)c2)cc1` [Compound 6, 1-Isobutyl-5-(3′-(methylsulfonyl)-[1,1′-biphenyl]-4-yl)-N-(2,2,2-trifluoroethyl)-1H-pyrazole-3-carboxamide], the pEC50 was above 6.00. In the case of `CC(C)Cn1nc(C(=O)NCC(F)(F)F)cc1-c1ccc(-c2ccc(CO)c(S(C)(=O)=O)c2)cc1` [Compound 7, 5-(4′-(Hydroxymethyl)-3′-(methylsulfonyl)-[1,1′-biphenyl]-4-yl)-1-isobutyl-N-(2,2,2-trifluoroethyl)-1H-pyrazole-3-carboxamide] it was above 6.00; in that of `CC(C)Cc1nc(C(C)(C)O)cn1-c1ccc(-c2cccc(S(C)(=O)=O)c2)cc1` [Compound 8, 2-(2-isobutyl-1-(3′-(methylsulfonyl)-[1,1′-biphenyl]-4-yl)-1H-imidazol-4-yl)propan-2-ol], 5.00 to 6.00; in that of `C=C(C)c1cc(-c2ccc(-c3cccc(S(C)(=O)=O)c3)cc2)n(CC(C)C)n1` [Compound 9, 1-isobutyl-5-(3′-(methylsulfonyl)-[1,1′-biphenyl]-4-yl)-3-(prop-1-en-2-yl)-1H-pyrazole], 5.00 to 6.00. The same measure for `CC(C)Cn1nc(C(C)(C)O)cc1-c1ccc(-c2ccc(CO)c(S(C)(=O)=O)c2)cc1` [Compound 10, 2-(5-(4′-(Hydroxymethyl)-3′-(methylsulfonyl)-[1,1′-biphenyl]-4-yl)-1-isobutyl-1H-pyrazol-3-yl)propan-2-ol]: 5.00 to 6.00.

In the case of `CC(C)Cn1nc(C(C)(C)O)cc1-c1ccc(-c2cccc(S(C)(=O)=O)c2)cc1` [Compound 11, 2-(1-isobutyl-5-(3′-(methylsulfonyl)-[1,1′-biphenyl]-4-yl)-1H-pyrazol-3-yl)propan-2-ol], the pEC50 is 5.00 to 6.00.

Molecule `CC(C)Cn1nc(C(C)C)cc1-c1ccc(-c2cccc(S(C)(=O)=O)c2)cc1` [Compound 12, 1-isobutyl-3-isopropyl-5-(3′-(methylsulfonyl)-[1,1′-biphenyl]-4-yl)-1H-pyrazole] had a pEC50 of 5.00 to 6.00. The same measure for `CS(=O)(=O)c1cccc(-c2ccc(-c3cc(C(F)(F)F)nn3CC3CC3)cc2)c1` [Compound 18, 1-(cyclopropylmethyl)-5-(3′-(methylsulfonyl)-[1,1′-biphenyl]-4-yl)-3-(trifluoromethyl)-1H-pyrazole]: above 6.00; for `CCC(C)n1nc(C(F)(F)F)cc1-c1ccc(-c2cccc(S(C)(=O)=O)c2)cc1` (stereo not shown) [Compound 19, 1-(sec-butyl)-5-(3′-(methylsulfonyl)-[1,1′-biphenyl]-4-yl)-3-(trifluoromethyl)-1H-pyrazole]: below 5.00; for `CS(=O)(=O)c1cccc(-c2ccc(-c3cc(C(F)(F)F)nn3C3CCCCC3)cc2)c1` [Compound 20, 1-cyclohexyl-5-(3′-(methylsulfonyl)-[1,1′-biphenyl]-4-yl)-3-(trifluoromethyl)-1H-pyrazole]: below 5.00. `CS(=O)(=O)c1cccc(-c2ccc(-c3cc(C(F)(F)F)nn3CC3CCCCC3)cc2)c1` [Compound 21, 1-(cyclohexylmethyl)-5-(3′-(methylsulfonyl)-[1,1′-biphenyl]-4-yl)-3-(trifluoromethyl)-1H-pyrazole] showed a pEC50 above 6.00.
